Measured values from US10000488B2, “Heterocyclic compound” (TAKEDA PHARMACEUTICAL COMPANY LIMITED, priority 2014, dated 2018).
Where a name gives a salt, the structure may show the parent alone.

Columns and labels:
[1] = target: T1, RORγt (Homo sapiens, UniProt P51449); assay: Cofactor recruitment test (Alpha Screen, biotinylated SRC-1 peptide); assay type: biochemical; settings: read-out: signal value inhibitory rate (%) at test compound 1 μM
T1 sequence (P51449 1-497 isoform P51449-2): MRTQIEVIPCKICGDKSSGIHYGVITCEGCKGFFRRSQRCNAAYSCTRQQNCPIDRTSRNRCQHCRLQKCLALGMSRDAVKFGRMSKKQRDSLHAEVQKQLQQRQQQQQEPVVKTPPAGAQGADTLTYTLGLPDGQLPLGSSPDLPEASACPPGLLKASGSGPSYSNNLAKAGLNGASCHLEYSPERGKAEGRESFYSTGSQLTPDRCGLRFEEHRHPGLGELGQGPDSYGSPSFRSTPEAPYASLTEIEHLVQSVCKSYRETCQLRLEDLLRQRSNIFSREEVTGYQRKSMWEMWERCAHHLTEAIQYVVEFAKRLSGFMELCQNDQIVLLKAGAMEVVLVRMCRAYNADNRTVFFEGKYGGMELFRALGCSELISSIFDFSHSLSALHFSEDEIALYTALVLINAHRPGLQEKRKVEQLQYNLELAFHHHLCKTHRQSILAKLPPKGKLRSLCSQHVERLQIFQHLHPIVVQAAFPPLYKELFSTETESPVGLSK
Protocol: Cofactor Recruitment Test
Cofactor recruitment test was performed by Alpha Screen (Histidine Detection Kit, PerkinElmer) method. First, a test compound was diluted with an assay buffer (50 mM Tris-HCl (pH 7.5), 50 mM KCl, 1 mM DTT, 0.1% BSA) and added to a 384 well plate by 5 μL. […] The mixture was stood in a dark place for 1 hr, and the signal value was measured by Envision (PerkinElmer).

[2] = target: T1, RORγt; assay: RORγt binding test using fluorescent-labeled synthetic ligand (TR-FRET); settings: test compound 1 μM; read-out: binding inhibitory rate (%) of fluorescent-labeled synthetic ligand to RORγt at test compound 1 μM
Protocol: RORγt Binding Test Using Fluorescent-Labeled Synthetic Ligand
The binding activity of the test compound to RORγt was measured by a time resolved fluorescence resonance energy transfer (TR-FRET) utilizing histidine-tagged RORγt, fluorescent-labeled synthetic ligand, and terbium-labeled anti-histidine tag antibody (Invitrogen). First, a test compound diluted with an assay buffer (20 mM Tris-HCl (pH 7.5), 100 mM NaCl, 1 mM DTT, 0.1% BSA) was added to a 384 well plate by 3 μL. Then, RORγt diluted with an assay buffer to 240 nM was added by 3 μL, after which fluorescent-labeled synthetic ligand diluted with the assay buffer to 12 μM was added by 3 μL, and the mixture was stood at room temperature for 20 min. Thereafter, a terbium-labeled anti-histidine tag antibody diluted with the assay buffer to 8 nM was added by 3 μL. The mixture was stood at room temperature for 20 min, and fluorescence intensity (excitation wavelength 320 nm, fluorescence wavelength 520 nm, delay time 100 microseconds) was measured by Envision (PerkinElmer).

[3] = target: T1, RORγt; assay: Jurkat reporter test (human IL-17 ROR response element luciferase reporter, RORγt vector); assay type: cell-based; settings: test compound 3 μM; Jurkat cells; read-out: luminescence level inhibitory rate (%) at test compound 3 μM
Protocol: The Jurkat cells used for the reporter test were cultured in a culture medium (RPMI (Invitrogen), 10% FCS (AusGeneX), 100 U/mL penicillin, 100 μg/mL streptomycin). On the day of the test, 4×10^7 cells were recovered by a centrifugal operation (1000 rpm, for 5 min) and suspended in PBS (phosphate buffered saline) (Invitrogen). Thereafter, the cells were recovered again by a centrifugal operation, and suspended in 2 mL of R buffer (NEON transfection kit, Invitrogen). […] Gene transfer was performed by Electroporation apparatus (NEON, Invitrogen) under the conditions of pulse voltage 1350 V, interval 10 milliseconds, number of times 3. The cells after gene transfer were suspended in 40 mL of a reaction medium (RPMI, 10% Lipid reduced FCS (HyClone), 10 mM HEPES (pH 7.5), 100 U/mL penicillin, 100 μg/mL streptomycin, 5 μM lovastatin), and plated in a 96 well plate by 90 μL. A test compound diluted with the reaction medium was added by 10 μL, and the cells were cultured overnight in an incubator. Bright-Glo (Promega) was added by 100 μL, and the mixture was stirred at room temperature for 10 min, and the luminescence level was measured by Envision (PerkinElmer).

Compound	inhibition at 1 µM [1] [%]	inhibition at 1 µM [2] [%]	inhibition at 3 µM [3] [%]
CC(C)n1c(=O)n(CC2CC2)c(=O)c2cc(NC(=O)N3CCO[C@@H](C(=O)Nc4cnc(C#N)c(F)c4)C3)ccc21 [Example 103, (2R)-N^2-(6-cyano-5-fluoropyridin-3-yl)-N^4-(3-(cyclopropylmethyl)-1-isopropyl-2,4-dioxo-1,2,3,4-tetrahydroquinazolin-6-yl)morpholine-2,4-dicarboxamide]	102	101	103
CC(C)n1c(=O)n(CC2CC2(F)F)c(=O)c2cc(NC(=O)N3CCCC(n4cnc5cc(C#N)ccc5c4=O)C3)c(F)cc21 (mixture of isomers) [Example 360, (3R)-3-(7-cyano-4-oxoquinazoline-3(4H)-yl)-N-(3-((2,2-difluorocyclopropyl)methyl)-7-fluoro-1-isopropyl-2,4-dioxo-1,2,3,4-tetrahydroquinazolin-6-yl)piperidine-1-carboxamide (mixture of two stereoisomers)]	105	101	107
CC(C)n1c(=O)n(CC2CCCO2)c(=O)c2cc(NC(=O)N3CCO[C@@H](C(=O)Nc4ccc(C#N)c(Cl)c4)C3)c(F)cc21 (stereo partly drawn) [Example 333, (2R)—N^2-(3-chloro-4-cyanophenyl)-N^4-(7-fluoro-1-isopropyl-2,4-dioxo-3-(tetrahydrofuran-2-ylmethyl)-1,2,3,4-tetrahydroquinazolin-6-yl)morpholine-2,4-dicarboxamide]	107	101	106
CC(C)n1c(=O)n(C[C@@H]2CCCO2)c(=O)c2cc(NC(=O)N3CCO[C@@H](C(=O)Nc4cc(Cl)c(C#N)cc4F)C3)c(F)cc21 [Example 358, (2R)—N^2-(5-chloro-4-cyano-2-fluorophenyl)-N^4-(7-fluoro-1-isopropyl-2,4-dioxo-3-((2S)-tetrahydrofuran-2-ylmethyl)-1,2,3,4-tetrahydroquinazolin-6-yl)morpholine-2,4-dicarboxamide]	107	101	106
COC(=O)N1Cc2ccc(C(=O)N[C@@H]3CCCN(C(=O)Nc4cc5c(=O)n(CC6CC6)c(=O)n(C(C)C)c5cc4F)C3)cc2C1 [Example 343, methyl 5-(((3R)-1-((3-(cyclopropylmethyl)-7-fluoro-1-isopropyl-2,4-dioxo-1,2,3,4-tetrahydroquinazolin-6-yl)carbamoyl)piperidin-3-yl)carbamoyl)-1,3-dihydro-2H-isoindole-2-carboxylate]	107	101	108
CC(C)n1c(=O)n(CC2CCOC2)c(=O)c2cc(NC(=O)N3CCO[C@@H](C(=O)Nc4ccc(C#N)c(Cl)c4)C3)c(F)cc21 (stereo partly drawn) [Example 335, (2R)—N^2-(3-chloro-4-cyanophenyl)-N^4-(7-fluoro-1-isopropyl-2,4-dioxo-3-(tetrahydrofuran-3-ylmethyl)-1,2,3,4-tetrahydroquinazolin-6-yl)morpholine-2,4-dicarboxamide]	108	101	106
CC(C)n1c(=O)n(CC2CC2)c(=O)c2cc(NC(=O)N3CCNC(C(=O)Nc4ccc(C#N)c(F)c4)C3)ccc21 (stereo not drawn) [Example 92, N^3-(4-cyano-3-fluorophenyl)-N^1-(3-(cyclopropylmethyl)-1-isopropyl-2,4-dioxo-1,2,3,4-tetrahydroquinazolin-6-yl)piperazine-1,3-dicarboxamide hydrochloride]	103	102	103
CC(C)n1c(=O)n(CC2CC2)c(=O)c2cc(NC(=O)N3CCC[C@@H](NC(=O)c4ccc(CNC(=O)OC(C)(C)C)cc4)C3)ccc21 [Example 274, tert-Butyl (4-(((3R)-1-((3-(cyclopropylmethyl)-1-isopropyl-2,4-dioxo-1,2,3,4-tetrahydroquinazolin-6-yl)carbamoyl)piperidin-3-yl)carbamoyl)benzyl) carbamate]	89	102	101
